The results in this text go back to patent publication US10287295B2, “TGF-β inhibitors” (Rigel Pharmaceuticals, Inc., priority 2015, dated 2019).

Each structure is given as a SMILES string.

The target in one assay is HIS-TGF-βR1 T204D (Homo sapiens (Human), UniProt P36897, T204D). Nature of the assay: HTRF probe displacement assay, HIS-TGF-βR1 T204D. The conditions noted are these: read-out: TGFbr1 IC50, 1 nM HIS-TGF-βR1 T204D, 1 hour at room temperature.
For assay [1], the system named is GDF8 signaling (GDF pSMAD, MPC11). Nature of the assay: AlphaScreen SureFire SMAD3 (p-Ser423/425) assay, inhibition of GDF8 signaling. In kind it is cell-based. The conditions noted are these: Mus musculus, MPC-11, inhibition of GDF8 signaling, p-SMAD3 readout.
In assay [2] the test system is TGF-β signaling (TGF-β pSMAD, MPC-11). Nature of the assay: AlphaScreen SureFire SMAD3 (p-Ser423/425) assay, inhibition of TGF-β signaling. The conditions noted are these: Mus musculus, MPC-11, inhibition of TGF-β signaling, p-SMAD3 readout. The class given is cell-based.

Sequence of HIS-TGF-βR1 T204D (P36897 34-503 T204D): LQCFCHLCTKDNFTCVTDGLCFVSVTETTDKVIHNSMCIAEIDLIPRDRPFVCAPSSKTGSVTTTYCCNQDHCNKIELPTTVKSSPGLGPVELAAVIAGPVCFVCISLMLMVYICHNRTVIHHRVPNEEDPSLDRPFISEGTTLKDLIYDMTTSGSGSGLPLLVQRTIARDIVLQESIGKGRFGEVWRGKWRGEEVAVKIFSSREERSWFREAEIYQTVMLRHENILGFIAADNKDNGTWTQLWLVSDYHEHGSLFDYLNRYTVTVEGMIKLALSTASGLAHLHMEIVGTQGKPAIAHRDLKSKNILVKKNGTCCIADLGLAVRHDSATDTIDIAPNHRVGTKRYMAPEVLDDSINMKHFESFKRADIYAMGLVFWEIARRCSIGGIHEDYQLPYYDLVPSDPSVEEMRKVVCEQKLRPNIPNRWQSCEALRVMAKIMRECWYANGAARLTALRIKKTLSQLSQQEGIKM

In the case of `Cc1nc(-c2ccc(F)cc2)c(-c2ccc3ncc(C#N)n3c2)n1CC(F)F` [272A′, 6-(1-(2,2-difluoroethyl)-4-(4-fluorophenyl)-2-methyl-1H-imidazol-5-yl)imidazo[1,2-a]pyridine-3-carbonitrile], the half-inhibitory concentration (IC50) on HIS-TGF-βR1 T204D turned out to be 251 nM.

In the case of `NC(=O)c1cnc2ccc(-c3c(-c4ccc(F)c(Cl)c4)ncn3[C@H]3C[C@@H](O)C3)nn12` [140′, 6-(4-(3-chloro-4-fluorophenyl)-1-((1s,3s)-3-hydroxycyclobutyl)-1H-imidazol-5-yl)imidazo[1,2-b]pyridazine-3-carboxamide], the IC50 at HIS-TGF-βR1 T204D came out at 2.8 nM. As to `FC(F)(F)c1nc(-c2cccc(Cl)c2)c(-c2ccc3ncnn3c2)[nH]1` [Compound 150, 6-(4-(3-Chlorophenyl)-2-(trifluoromethyl)-1H-imidazol-5-yl)-[1,2,4]triazolo[1,5-a]pyridine], the figures for the IC50 in assay [1] and in assay [2] were 350 nM and 850 nM, respectively. For `CCc1nc(-c2ccc(F)c(F)c2)c(-c2ccc3nccnc3c2)[nH]1` [Compound 135, 6-(4-(3,4-Difluorophenyl)-2-ethyl-1H-imidazol-5-yl)quinoxaline], in that order: 770 nM and 3420 nM. On to `CCc1nc(-c2ccc(F)c(F)c2)c(-c2ccc3nccn3c2)[nH]1` [Compound 134, 6-(4-(3,4-Difluorophenyl)-2-ethyl-1H-imidazol-5-yl)imidazo[1,2-a]pyridine], for which the IC50 in assay [1] is 870 nM; in assay [2] it was 2540 nM. For `CCc1nc(-c2cccc(C)c2)c(-c2ccc3cn[nH]c3c2)[nH]1` [Compound 114, 6-(2-Ethyl-4-(m-tolyl)-1H-imidazol-5-yl)-1H-indazole], in that order: 180 nM and 1130 nM. Take `Cc1nc(-c2ccc(F)c(F)c2)c(-c2ccc3[nH]ncc3c2)[nH]1` [Compound 83, 5-(4-(3,4-Difluorophenyl)-2-methyl-1H-imidazol-5-yl)-1H-indazole]: the IC50 was 130 nM in assay [1] and 1330 nM in assay [2]. On to `Cc1cc(-c2nc(N)sc2-c2ccc3ncsc3c2)ccc1F` [Compound 162, 5-(benzo[d]thiazol-6-yl)-4-(4-fluoro-3-methylphenyl)thiazol-2-amine], for which the IC50 in assay [1] stood at 52.3 nM; in assay [2], 127 nM.

Turning to `Cc1cccc(-c2ncsc2-c2ccc3ncsc3c2)c1` [Compound 161, 6-(4-(m-tolyl)thiazol-5-yl)benzo[d]thiazole], the IC50 was 46.8 nM in assay [1] and 427 nM in assay [2].

With `Cc1cccc(-c2nc(C)n(C)c2-c2ccc3ncsc3c2)c1` [Compound 59, 6-(1,2-Dimethyl-4-(m-tolyl)-1H-imidazol-5-yl)benzo[d]thiazole], the IC50 in assay [1] worked out at 690 nM; in assay [2], 6750 nM. Turning to `Cn1cnc(-c2ccc(F)cc2)c1-c1ccc2ncsc2c1` [Compound 51, 6-(4-(4-Fluorophenyl)-1-methyl-1H-imidazol-5-yl)benzo[d]thiazole], the IC50 in assay [1] amounted to 780 nM; in assay [2], 2710 nM. On to `Nc1nc(-c2cccc(C(F)(F)F)c2)c(-c2ccc3cn[nH]c3c2)s1` [Compound 185, 5-(1H-indazol-6-yl)-4-(3-(trifluoromethyl)phenyl)thiazol-2-amine], for which the IC50 in assay [1] is 425 nM; in assay [2], 2360 nM. Taken in the same sequence, the figures for `Cc1nc(-c2cc(F)c(F)c(F)c2)c(-c2ccc3cn[nH]c3c2)[nH]1` [Compound 91, 6-(2-Methyl-4-(3,4,5-trifluorophenyl)-1H-imidazol-5-yl)-1H-indazole] were 390 nM and 2230 nM. Turning to `Cc1cc(-c2nc(N)sc2-c2ccc3[nH]ncc3c2)ccc1F` [Compound 160, 4-(4-fluoro-3-methylphenyl)-5-(1H-indazol-5-yl)thiazol-2-amine], the values for the IC50 in assay [1] and in assay [2] were 38.5 nM and 99.8 nM, respectively. Turning to `Cn1cnc(-c2ccc(F)c(F)c2)c1-c1ccc2nccnc2c1` [Compound 68, 6-(4-(3,4-Difluorophenyl)-1-methyl-1H-imidazol-5-yl)quinoxaline], the IC50 in assay [1] worked out at 1050 nM; in assay [2], 2870 nM. For the compound `Cc1nc(-c2ccc(F)c(C)c2)c(-c2ccc3cn[nH]c3c2)[nH]1` [Compound 72, 6-(4-(4-Fluoro-3-methylphenyl)-2-methyl-1H-imidazol-5-yl)-1H-indazole], the IC50 was 100 nM in assay [1] and 970 nM in assay [2].

Turning to `Cc1cccc(-c2nc[nH]c2-c2ccc3ncn(C)c3c2)c1` [Compound 17, 1-Methyl-6-(4-(m-tolyl)-1H-imidazol-5-yl)-1H-benzo[d]imidazole], the IC50 in assay [1] came out at 50 nM; in assay [2], 140 nM. For `Cc1nc(-c2cccc(Cl)c2)c(-c2ccc3nccn3c2)[nH]1` [Compound 104, 6-(4-(3-Chlorophenyl)-2-methyl-1H-imidazol-5-yl)imidazo[1,2-a]pyridine], in that order: 80 nM and 510 nM. `Nc1nc(-c2cccc(C(F)(F)F)c2)c(-c2ccc3nccn3c2)s1` [Compound 171, 5-(imidazo[1,2-a]pyridin-6-yl)-4-(3-(trifluoromethyl)phenyl)thiazol-2-amine]: the results for the IC50 in assay [1] and in assay [2] were 109 nM and 423 nM, respectively.

With `COc1cccc(-c2nc(N)sc2-c2ccc3[nH]ncc3c2)c1` [Compound 177, 5-(1H-indazol-5-yl)-4-(3-methoxyphenyl)thiazol-2-amine], the IC50 in assay [1] was determined as 234 nM; in assay [2] it was 1040 nM. For `Cc1cccc(-c2nc(C(C)C)[nH]c2-c2ccc3ncnn3c2)c1` [Compound 152, 6-(2-Isopropyl-4-(m-tolyl)-1H-imidazol-5-yl)-[1,2,4]triazolo[1,5-a]pyridine], the results for the IC50 in assay [1] and in assay [2] were 190 nM and 380 nM, respectively. With `Cc1cc(-c2nc(C)n(C)c2-c2ccc3cn[nH]c3c2)ccc1F` [Compound 53, 6-(4-(4-Fluoro-3-methylphenyl)-1,2-dimethyl-1H-imidazol-5-yl)-1H-indazole], the IC50 in assay [1] stood at 780 nM; in assay [2], 3340 nM. Regarding `Clc1cccc(-c2nc[nH]c2-c2ccc3ncsc3c2)c1` [Compound 25, 6-(4-(3-Chlorophenyl)-1H-imidazol-5-yl)benzo[d]thiazole], the IC50 was determined as 40 nM in assay [1] and 60 nM in assay [2]. Taken in the same sequence, the figures for `Clc1cccc(-c2nc[nH]c2-c2ccc3nccn3c2)c1` [Compound 26, 6-(4-(3-Chlorophenyl)-1H-imidazol-5-yl)imidazo[1,2-a]pyridine] were 220 nM and 260 nM. As to `CCc1nc(-c2cc(F)cc(Cl)c2)c(-c2ccc3[nH]ncc3c2)[nH]1` [Compound 139, 5-(4-(3-Chloro-5-fluorophenyl)-2-ethyl-1H-imidazol-5-yl)-1H-indazole], the IC50 in assay [1] was determined as 650 nM; in assay [2], 2030 nM. With `CCc1nc(-c2cccc(Cl)c2)c(-c2ccc3nccnc3c2)[nH]1` [Compound 129, 6-(4-(3-Chlorophenyl)-2-ethyl-1H-imidazol-5-yl)quinoxaline], the IC50 in assay [1] is 290 nM; in assay [2], 1340 nM. As to `CCc1nc(-c2ccc(F)c(C)c2)c(-c2ccc3cn[nH]c3c2)[nH]1` [Compound 107, 6-(2-Ethyl-4-(4-fluoro-3-methylphenyl)-1H-imidazol-5-yl)-1H-indazole], the IC50 in assay [1] was 340 nM; in assay [2] it was 1850 nM. Regarding `Cc1cc(-c2nc(N)sc2-c2ccc3cn[nH]c3c2)ccc1F` [Compound 174, 4-(4-fluoro-3-methylphenyl)-5-(1H-indazol-6-yl)thiazol-2-amine], the IC50 in assay [1] was found to be 144 nM; in assay [2], 431 nM. For the compound `Cn1cnc(-c2cccc(Cl)c2)c1-c1ccc2ncsc2c1` [Compound 63, 6-(4-(3-Chlorophenyl)-1-methyl-1H-imidazol-5-yl)benzo[d]thiazole], the IC50 in assay [1] was 60 nM; in assay [2] it was 230 nM. For the compound `COc1ccc(-c2nc(N)sc2-c2ccc3[nH]ncc3c2)cc1` [Compound 157, 5-(1H-indazol-5-yl)-4-(4-methoxyphenyl)thiazol-2-amine], the values for the 50% inhibitory concentration (IC50) in assay [1] and in assay [2] were 25.6 nM and 160 nM, respectively.
